# Data published in patent US11339124B2, “3-(benzylamino)-4-(cyclohexylamino)-n-(2-(piperazin-1-yl)ethyl)benzenesulfonamide derivatives and related ferrostatin-1 analogues as cell death inhibitors for treating e.g. stroke” (VIB VZW, priority 2018, dated 2022).
# Assay: In vivo pharmacokinetics, single iv administration to male Wistar rats (blood concentration)
# Design: species or system rat
# Settings: 5 mg/kg iv
# Protocol: In order to estimate how these in vitro ADME parameters correlate to an in vivo setting, compound 39 was selected for a single intravenous (iv) administration to three male Wistar rats at a dose of 5 mg/kg. Blood samples were obtained at various time points. (0.083, 0.25, 0.5, 1, 2, 4, and 24 h) The concentration of 39 was determined using UPLC analysis coupled with tandem quadrupole mass spectrometry. […] Only in 1 sample a concentration of […] was determined 5 minutes after dosing.
# Male Wistar rats (BW˜250 g; Janvier France) were housed individually and randomly allocated to groups of 3 animals each based on body weight. The animals were fasted overnight until 4 hours after dosing. Drinking water remained available ad libitum.
# The test compound were kept at 4° C. until formulation. The compound was formulated in PEG200 at 10 mg/ml. The test formulation was prepared by LMPH and stored at room temperature.
# Blood was collected from sublingual vein using capillary tubes under isoflurane anaesthesia. The blood was dropped (15 μL) on Whatman® FTA® DMPK B cards, dried at room temperature for at least 2 hours and further processed for analysis. A 6 mm disk was punched from the blood spot center, extracted in 75:25 ACN:H2O containing tolbutamide as internal standard (IS). […] The optimal DBS protocol (FTA DMPK-A or B card, extraction solvent) was determined in a preliminary experiment.
compound,measurement,setting,value
"Cl.O=S(=O)(NCCN1CCNCC1)c1ccc(NC2CCCCC2)c(NCc2ccccc2)c1 [Compound 39, 3-(benzylamino)-4-(cyclohexylamino)-N-(2-(piperazin-1-yl)ethyl)benzenesulfonamide Hydrochloride]",Plasma concentration (below detection limit in nearly all samples),0.083-24 h,< 53.1 ng/mL
same,Plasma concentration in 1 sample,5 minutes after dosing,19.6 ng/mL
